The source made the active and inactive calls. The calls are words filed in the database; no cut-off is given here.
How the values were obtained:
[1] = Resistance index, ratio of IC50 for antiproliferative activity against human MCF7/ADR cells to IC50 for antiproliferative activity against human MCF7 cells; assay type: functional
MCF7 [2] = experiment: Induction of apoptosis in human MCF7 cells assessed as increase in Bax protein level at 0.5 to 3 uM and measured after 24 hrs Western blot analysis relative to control; assay type: functional, cell-based; details: dose 0.5-3 µM
[3] = target: T1, Estrogen receptor (Homo sapiens) (UniProt P03372); experiment: Induction of ERalpha degradation in human MCF7 cells assessed as ERalpha level at 3 uM measured after 24 hrs in presence of proteasome inhibitor MG132 by Western blot analysis; assay type: cell-based
T1 sequence (whole entry): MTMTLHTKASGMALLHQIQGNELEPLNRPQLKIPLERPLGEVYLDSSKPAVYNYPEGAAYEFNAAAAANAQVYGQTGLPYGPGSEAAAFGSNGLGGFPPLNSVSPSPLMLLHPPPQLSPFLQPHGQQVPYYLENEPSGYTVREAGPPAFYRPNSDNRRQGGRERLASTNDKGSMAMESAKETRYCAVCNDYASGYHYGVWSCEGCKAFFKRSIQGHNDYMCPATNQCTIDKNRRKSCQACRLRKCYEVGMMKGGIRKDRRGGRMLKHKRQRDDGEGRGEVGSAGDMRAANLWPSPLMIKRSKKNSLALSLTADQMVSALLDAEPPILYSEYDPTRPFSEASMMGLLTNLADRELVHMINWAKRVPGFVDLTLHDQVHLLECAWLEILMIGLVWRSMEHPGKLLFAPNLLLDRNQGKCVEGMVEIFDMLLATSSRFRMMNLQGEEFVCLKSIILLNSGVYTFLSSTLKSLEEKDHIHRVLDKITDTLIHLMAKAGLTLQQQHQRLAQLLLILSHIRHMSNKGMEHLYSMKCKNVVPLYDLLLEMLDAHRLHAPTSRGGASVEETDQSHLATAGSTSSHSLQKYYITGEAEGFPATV

MCF7 [4] = experiment: Cell cycle arrest in human MCF7 cells assessed as accumulation at G1 phase at 0.5 uM measured after 24 hrs by propidium iodide staining based flow cytometry (reference value: 73.45 %); assay type: functional
[5] = target: T1, Estrogen receptor (Homo sapiens); experiment: Induction of ERalpha degradation in human MCF7 cells assessed as ERalpha level at 3 uM measured after 24 hrs in presence of HyT by Western blot analysis; assay type: cell-based
MCF7 [6] = experiment: Induction of apoptosis in human MCF7 cells assessed as early apoptotic cells at 1 uM incubated for 24 hrs by annexin-V and PI staining based flow cytometry analysis relative to control; assay type: functional
MCF7 [7] = experiment: Cell cycle arrest in human MCF7 cells assessed as decrease in G2/M phase accumulation at 0.5 to 2 uM and measured after 24 hrs by propidium iodide staining based flow cytometry relative to control; assay type: functional; details: dose 0.5-2 µM
[8] = Selectivity index, ratio of IC50 for antiproliferative activity against human MCF-10A cells to IC50 for antiproliferative activity against human MDA-MB-231 cells by MTT assay; assay type: toxicity, cell-based; details: MCF-10A cells versus MDA-MB-231 cells, read-out: Ratio IC50
MCF7 [9] = experiment: Induction of apoptosis in human MCF7 cells assessed as increase in cytochrome C protein level at 0.5 to 3 uM and measured after 24 hrs Western blot analysis relative to control; assay type: functional, cell-based; details: dose 0.5-3 µM
MCF7 [10] = experiment: Induction of ROS generation in human MCF7 cells assessed as increase in intracellular ROS level at 0.5 to 2 uM and measured after 24 hrs by DCFH-DA staining based flow cytometry method; assay type: functional, cell-based; details: dose 0.5-2 µM
MCF7 [11] = experiment: Inhibition of colony formation in human MCF7 cells at 2 uM measured after 9 days by crystal violet staining based assay relative to control; assay type: functional, cell-based; details: time 9.0 day
[12] = Antiproliferative activity against human MCF-10A cells assessed as reduction in cell viability after 48 hrs by MTT assay; assay type: toxicity, cell-based
MDA-MB-231 = experiment: Antiproliferative activity against human MDA-MB-231 cells assessed as reduction in cell viability after 48 hrs by MTT assay; details: MDA-MB-231, 48 h
[13] = target: T2, Progesterone receptor (Homo sapiens) (UniProt P06401); experiment: Induction of progesterone receptor degradation in human MCF7 cells assessed as decrease in PR level at 1 uM incubated for 24 hrs by Western blot analysis; assay type: cell-based
T2 sequence (whole entry): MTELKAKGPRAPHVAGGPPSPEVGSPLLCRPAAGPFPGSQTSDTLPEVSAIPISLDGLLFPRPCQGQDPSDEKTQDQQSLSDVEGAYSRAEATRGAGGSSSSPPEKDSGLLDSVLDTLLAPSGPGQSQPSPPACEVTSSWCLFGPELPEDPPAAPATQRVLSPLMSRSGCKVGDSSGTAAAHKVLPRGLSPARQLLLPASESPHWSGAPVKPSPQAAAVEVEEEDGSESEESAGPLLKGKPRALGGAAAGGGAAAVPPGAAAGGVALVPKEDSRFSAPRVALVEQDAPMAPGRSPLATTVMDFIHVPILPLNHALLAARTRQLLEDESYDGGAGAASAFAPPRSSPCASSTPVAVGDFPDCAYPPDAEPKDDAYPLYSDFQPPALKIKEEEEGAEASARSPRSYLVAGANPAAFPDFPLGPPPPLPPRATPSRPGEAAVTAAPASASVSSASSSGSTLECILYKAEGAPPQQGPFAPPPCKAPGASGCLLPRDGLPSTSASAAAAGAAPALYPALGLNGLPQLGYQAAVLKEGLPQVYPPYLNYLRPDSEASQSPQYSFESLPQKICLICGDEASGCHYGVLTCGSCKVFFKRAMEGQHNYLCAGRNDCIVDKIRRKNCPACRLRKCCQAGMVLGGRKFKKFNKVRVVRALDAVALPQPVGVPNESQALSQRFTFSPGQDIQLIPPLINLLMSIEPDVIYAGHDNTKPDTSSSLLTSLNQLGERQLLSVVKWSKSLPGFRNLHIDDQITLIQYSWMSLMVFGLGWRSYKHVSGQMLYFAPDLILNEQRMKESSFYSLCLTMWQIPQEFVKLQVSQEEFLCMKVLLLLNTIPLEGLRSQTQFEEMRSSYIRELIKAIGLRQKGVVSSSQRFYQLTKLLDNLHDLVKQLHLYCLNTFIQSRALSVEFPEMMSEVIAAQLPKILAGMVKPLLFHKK

[14] = target: T1, Estrogen receptor (Homo sapiens); experiment: Induction of ERalpha degradation in human MCF7 cells assessed as decrease in ERalpha protein expression at 1 uM incubated for 24 hrs by Western blot analysis; assay type: cell-based
MCF7 [15] = experiment: Cell cycle arrest in human MCF7 cells assessed as accumulation at G1 phase at 1 uM measured after 24 hrs by propidium iodide staining based flow cytometry (reference value: 73.45 %); assay type: functional

CC1=CC(=O)[C@H]2/C(C=O)=C\C[C@H]3[C@@H]([C@@H](C)/C=C\C=C/C(=O)OCCOCCOCCOC(=O)CC45CC6CC(CC(C6)C4)C5)CC[C@]3(C)C[C@H]12
Ratio IC50 [1]: 1.17 | Activity (MCF7 [2]): Active | Activity [3]: inactive | Activity (MCF7 [4]): 74.77% | Activity [5]: Active | Activity (MCF7 [6]): 14.1% | Activity (MCF7 [7]): Active | selectivity ratio [8]: 5.34 | Activity (MCF7 [9]): Active | Activity (MCF7 [10]): Dose-Dependent Effect | inhibition (MCF7 [11]): Active | IC50 at 48 h [12]: 2190 nM | IC50 (MDA-MB-231): 310 nM | Activity [13]: inactive | Activity [14]: Active | Activity (MCF7 [15]): 78.07%

From ChEMBL document CHEMBL5042519, “Design and synthesis of marine sesterterpene analogues as novel estrogen receptor α degraders for breast cancer treatment” (Eur J Med Chem, 2022)
